The results in this text go back to US20090306133A1, “New Acetyl Coenzyme A Carboxylase (ACC) Inhibitors And Uses In Treatments Of Obesity And Diabetes Mellitus - 087” (ASTRAZENECA AB, priority 2007, published 2009).

For test [1], the target named is Human recombinant Acetyl-CoA Carboxylase 2 (ACC2) (Homo sapiens, UniProt O00763). The test can be described thus: Assay Y: ACC2 inhibition, inorganic phosphate (Malachite Green). The format is biochemical. The settings on record: Assay Y: room temperature, 3 hr, 15 min preincubation. In short, it runs like this:
(§1)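 Enzyme preincubated with compound 15 min before substrate addition; reaction run 3 h, then phosphate detected with Malachite Green at 670 nm after 10 min at room temperature. Triplicate 10-point titrations; IC50 by non-linear four-parameter curve fitting.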

Test [2] deals with Human recombinant Acetyl-CoA Carboxylase 1 (ACC1) (Homo sapiens, UniProt Q13085). The test is described as follows: Assay Y: ACC1 inhibition, inorganic phosphate (Malachite Green). The class given is biochemical. The settings on record: Assay Y: room temperature, 3 hr, 15 min preincubation. In short, it runs like this:
as §1

Molecules are shown by their SMILES. pIC50: −log10 of the molar value.

Human recombinant Acetyl-CoA Carboxylase 2 (ACC2), sequence (O00763 whole entry): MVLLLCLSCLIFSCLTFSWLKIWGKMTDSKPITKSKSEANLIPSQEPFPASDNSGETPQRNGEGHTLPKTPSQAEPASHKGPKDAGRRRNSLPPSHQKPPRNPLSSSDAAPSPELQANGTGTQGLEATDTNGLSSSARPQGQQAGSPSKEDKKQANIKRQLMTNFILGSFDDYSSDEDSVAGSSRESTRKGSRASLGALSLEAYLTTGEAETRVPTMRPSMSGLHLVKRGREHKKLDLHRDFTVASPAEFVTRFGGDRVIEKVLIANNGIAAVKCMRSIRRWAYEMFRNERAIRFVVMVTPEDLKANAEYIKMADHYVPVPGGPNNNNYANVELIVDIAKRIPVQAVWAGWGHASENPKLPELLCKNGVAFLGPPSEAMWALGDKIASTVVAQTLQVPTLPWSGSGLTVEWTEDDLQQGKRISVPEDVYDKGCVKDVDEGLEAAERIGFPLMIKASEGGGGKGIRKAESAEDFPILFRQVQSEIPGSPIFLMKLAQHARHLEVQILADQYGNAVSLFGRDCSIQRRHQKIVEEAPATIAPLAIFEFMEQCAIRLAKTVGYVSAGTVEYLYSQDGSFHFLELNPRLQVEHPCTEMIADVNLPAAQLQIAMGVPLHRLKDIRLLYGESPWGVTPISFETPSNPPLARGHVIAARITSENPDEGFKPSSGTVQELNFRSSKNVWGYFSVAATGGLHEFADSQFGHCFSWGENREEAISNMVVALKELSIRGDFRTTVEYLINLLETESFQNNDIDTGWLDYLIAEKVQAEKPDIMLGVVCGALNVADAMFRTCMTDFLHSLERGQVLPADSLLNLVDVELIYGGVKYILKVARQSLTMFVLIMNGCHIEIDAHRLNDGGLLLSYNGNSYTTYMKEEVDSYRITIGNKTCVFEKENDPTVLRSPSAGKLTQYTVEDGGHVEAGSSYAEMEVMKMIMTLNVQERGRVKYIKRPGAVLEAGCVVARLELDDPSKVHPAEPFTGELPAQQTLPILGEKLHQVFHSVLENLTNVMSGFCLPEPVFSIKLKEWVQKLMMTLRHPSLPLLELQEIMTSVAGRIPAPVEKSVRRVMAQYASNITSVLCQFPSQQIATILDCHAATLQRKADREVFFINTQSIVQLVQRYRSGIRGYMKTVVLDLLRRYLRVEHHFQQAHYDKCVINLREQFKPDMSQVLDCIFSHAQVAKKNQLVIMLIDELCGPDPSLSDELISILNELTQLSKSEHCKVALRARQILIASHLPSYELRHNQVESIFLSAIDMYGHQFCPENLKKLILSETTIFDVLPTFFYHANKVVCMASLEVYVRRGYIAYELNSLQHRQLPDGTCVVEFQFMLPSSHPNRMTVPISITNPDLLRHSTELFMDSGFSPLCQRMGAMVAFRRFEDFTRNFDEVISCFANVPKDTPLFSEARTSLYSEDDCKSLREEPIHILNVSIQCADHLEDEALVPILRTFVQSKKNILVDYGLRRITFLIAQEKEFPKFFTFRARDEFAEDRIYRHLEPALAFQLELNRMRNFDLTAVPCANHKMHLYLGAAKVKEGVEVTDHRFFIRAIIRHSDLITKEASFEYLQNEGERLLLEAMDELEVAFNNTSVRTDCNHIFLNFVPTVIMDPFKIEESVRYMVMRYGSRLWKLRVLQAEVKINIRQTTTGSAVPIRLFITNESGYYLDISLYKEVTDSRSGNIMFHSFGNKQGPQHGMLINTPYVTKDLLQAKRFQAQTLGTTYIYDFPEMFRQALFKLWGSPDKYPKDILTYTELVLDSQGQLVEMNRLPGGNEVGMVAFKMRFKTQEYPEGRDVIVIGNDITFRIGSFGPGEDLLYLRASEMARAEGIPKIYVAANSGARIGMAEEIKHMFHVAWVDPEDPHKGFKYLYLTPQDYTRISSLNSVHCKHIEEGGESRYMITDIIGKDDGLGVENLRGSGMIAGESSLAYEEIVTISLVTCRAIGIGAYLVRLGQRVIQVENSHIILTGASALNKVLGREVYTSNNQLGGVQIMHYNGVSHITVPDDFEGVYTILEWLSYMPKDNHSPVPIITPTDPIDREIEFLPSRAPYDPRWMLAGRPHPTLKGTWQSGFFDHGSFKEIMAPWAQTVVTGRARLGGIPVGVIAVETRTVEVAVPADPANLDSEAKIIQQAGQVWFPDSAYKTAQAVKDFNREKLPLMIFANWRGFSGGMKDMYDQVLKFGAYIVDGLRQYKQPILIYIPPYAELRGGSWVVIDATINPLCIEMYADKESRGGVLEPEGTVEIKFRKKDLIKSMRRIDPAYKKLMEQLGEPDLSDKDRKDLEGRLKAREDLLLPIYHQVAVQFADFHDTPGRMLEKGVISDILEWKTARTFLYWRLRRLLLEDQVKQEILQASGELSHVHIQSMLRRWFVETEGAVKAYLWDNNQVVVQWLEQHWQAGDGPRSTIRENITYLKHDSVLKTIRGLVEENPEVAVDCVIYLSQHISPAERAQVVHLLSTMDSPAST

`CC(C)(C)OC(=O)NC[C@H]1CC[C@H](CNS(=O)(=O)c2ccc(-c3ccccc3)cc2)CC1` [Example 67, tert-Butyl [(trans-4-{[(biphenyl-4-ylsulfonyl)amino]methyl}cyclohexyl)methyl]-carbamate]: the values for the negative-log IC50 (pIC50) in test [1] and in test [2] were 5.48 and less than 4.70, respectively.
On to `CC(C)c1ccc(S(=O)(=O)NC[C@H]2CC[C@H](CNC(=O)OC(C)(C)C)CC2)cc1` [Example 68, tert-Butyl {[trans-4-({[(4-isopropylphenyl)sulfonyl]amino}methyl)cyclohexyl]methyl}-carbamate], for which the pIC50 in test [1] was 5.58; in test [2], less than 4.70.
`Cc1nc(-c2ccc(S(=O)(=O)NC[C@H]3CC[C@H](CNC(=O)OC(C)(C)C)CC3)s2)cs1` [Example 70, tert-Butyl ({trans-4-[({[5-(2-methyl-1,3-thiazol-4-yl)-2-thienyl]sulfonyl}amino)-methyl]cyclohexyl}methyl)carbamate]: the values for the negative-log IC50 (pIC50) in test [1] and in test [2] were 5.55 and less than 4.70, respectively.
On the same counts, the results for `CC(=O)Nc1cccc2c(S(=O)(=O)NC[C@H]3CC[C@H](CNC(=O)OC(C)(C)C)CC3)cccc12` [Example 71, tert-Butyl {[trans-4-({[(5-acetamido-1-naphthyl)sulfonyl]amino}methyl)cyclohexyl]-methyl}carbamate] are 5.61 and 4.77.
With `CC(C)(C)OC(=O)NC[C@H]1CC[C@H](CNS(=O)(=O)c2ccc(-c3ccno3)s2)CC1` [Example 72, tert-Butyl {[trans-4-({[(5-isoxazol-5-yl-2-thienyl)sulfonyl]amino}methyl)cyclo-hexyl]methyl}carbamate], the pIC50 in test [1] is 5.61; in test [2], less than 4.70.
Consider `CC(=O)Nc1ccc(S(=O)(=O)NC[C@H]2CC[C@H](CNC(=O)OC(C)(C)C)CC2)cc1` [Example 73, tert-Butyl {[trans-4-({[(4-acetamidophenyl)sulfonyl]amino}methyl)cyclohexyl]-methyl}carbamate], for which the negative-log IC50 (pIC50) is 5.30 in test [1] and less than 4.70 in test [2].
Turning to `CC(C)(C)OC(=O)NC[C@H]1CC[C@H](CNS(=O)(=O)c2ccsc2)CC1` [Example 74, tert-Butyl [(trans-4-{[(3-thienylsulfonyl)amino]methyl}cyclohexyl)methyl]-carbamate], the figures for the pIC50 in test [1] and in test [2] were 5.02 and less than 4.70, respectively.
Regarding `Cc1nc(-c2cccc(S(=O)(=O)NC[C@H]3CC[C@H](CNC(=O)OC(C)(C)C)CC3)c2)no1` [Example 75, tert-Butyl ({trans-4-[({[3-(5-methyl-1,2,4-oxadiazol-3-yl)phenyl]sulfonyl}amino)-methyl]cyclohexyl}methyl)carbamate], the negative logarithm of the IC50 (pIC50) in test [1] is 5.37; in test [2], less than 4.70.
`CC(C)(C)OC(=O)NC[C@H]1CC[C@H](CNS(=O)(=O)c2cccc3cnccc23)CC1` [Example 76, tert-Butyl [(trans-4-{[(isoquinolin-5-ylsulfonyl)amino]methyl}cyclohexyl)-methyl]carbamate]: the values for the negative-log IC50 (pIC50) in test [1] and in test [2] were 5.44 and less than 4.70, respectively.
Turning to `CC(=O)Nc1nc(C)sc1S(=O)(=O)NC[C@H]1CC[C@H](CNC(=O)OC(C)(C)C)CC1` [Example 77, tert-Butyl {[trans-4-({[(4-acetamido-2-methyl-1,3-thiazol-5-yl)sulfonyl]amino}methyl)-cyclohexyl]methyl}carbamate], the values for the pIC50 in test [1] and in test [2] were 5.44 and 5.03, respectively.
Regarding `CC(C)(C)OC(=O)NC[C@H]1CC[C@H](CNS(=O)(=O)c2ccc3ncsc3c2)CC1` [Example 78, tert-Butyl [(trans-4-{[(1,3-benzothiazol-6-ylsulfonyl)amino]methyl}cyclohexyl)-methyl]carbamate], the pIC50 in test [1] is 5.50; in test [2] it was 5.18.
Turning to `CCN(C[C@H]1CC[C@H](CNC(=O)OC(C)(C)C)CC1)S(=O)(=O)c1ccc2ccccc2c1` [Example 79, tert-Butyl [(trans-4-{[ethyl(2-naphthylsulfonyl)amino]methyl}cyclohexyl)methyl]-carbamate], the negative-log IC50 (pIC50) was 5.27 in test [1] and less than 4.70 in test [2].
The matching figures for `CC(C)(C)OC(=O)NC[C@H]1CC[C@H](CN(CCc2ccccc2)S(=O)(=O)c2ccc3ccccc3c2)CC1` [Example 80, tert-Butyl [(trans-4-{[(2-naphthylsulfonyl)(2-phenylethyl)amino]methyl}cyclohexyl)-methyl]carbamate]: 5.52 and less than 4.70.
`CCOC(=O)CN(C[C@H]1CC[C@H](CNC(=O)OC(C)(C)C)CC1)S(=O)(=O)c1ccc2ccccc2c1` [Example 81, Ethyl N-[(trans-4-{[(tert-butoxycarbonyl)amino]methyl}cyclohexyl)methyl]-N-(2-naphthylsulfonyl)glycinate]: the pIC50 was 5.52 in test [1] and less than 4.70 in test [2].
On the same counts, the results for `CC(C)(C)OC(=O)NC[C@H]1CC[C@H](CN(CC2CCOCC2)S(=O)(=O)c2ccc3ccccc3c2)CC1` [Example 82, tert-Butyl [(trans-4-{[(2-naphthylsulfonyl)(tetrahydro-2H-pyran-4-ylmethyl)amino]-methyl}cyclohexyl)methyl]carbamate] are 5.50 and less than 4.70.
The matching figures for `CC(C)(C)OC(=O)NC[C@H]1CC[C@H](CN(CC#N)S(=O)(=O)c2ccc3ccccc3c2)CC1` [Example 83, tert-Butyl [(trans-4-{[(cyanomethyl)(2-naphthylsulfonyl)amino]methyl}cyclohexyl)-methyl]carbamate]: 5.49 and less than 4.70.
Turning to `C=CCN(C[C@H]1CC[C@H](CNC(=O)OC(C)(C)C)CC1)S(=O)(=O)c1ccc2ccccc2c1` [Example 84, tert-Butyl [(trans-4-{[allyl(2-naphthylsulfonyl)amino]methyl}cyclohexyl)methyl]-carbamate], the values for the pIC50 in test [1] and in test [2] were 5.34 and less than 4.70, respectively.
For `CCCCN(C[C@H]1CC[C@H](CNC(=O)OC(C)(C)C)CC1)S(=O)(=O)c1ccc2ccccc2c1` [Example 85, tert-Butyl [(trans-4-{[butyl(2-naphthylsulfonyl)amino]methyl}cyclohexyl)methyl]-carbamate], the pIC50 is 5.17 in test [1] and less than 4.70 in test [2].
On the same counts, the results for `CC(C)(C)OC(=O)NC[C@H]1CC[C@H](CN(CC(F)(F)F)S(=O)(=O)c2ccc3ccccc3c2)CC1` [Example 86, tert-Butyl [(trans-4-{[(2-naphthylsulfonyl)(2,2,2-trifluoroethyl)amino]methyl}cyclo-hexyl)methyl]carbamate] are 5.16 and less than 4.70.
Turning to `CCCN(C[C@H]1CC[C@H](CNC(=O)OC(C)(C)C)CC1)S(=O)(=O)c1ccc2ccccc2c1` [Example 87, tert-Butyl [(trans-4-{[(2-naphthylsulfonyl)(propyl)amino]methyl}cyclohexyl)methyl]-carbamate], the pIC50 was 5.06 in test [1] and less than 4.70 in test [2].
The matching figures for `CN(C[C@H]1CC[C@H](CNC(=O)OC(C)(C)C)CC1)S(=O)(=O)c1ccc2ccccc2c1` [Example 88, tert-Butyl [(trans-4-{[methyl(2-naphthylsulfonyl)amino]methyl}cyclohexyl)methyl]-carbamate]: 5.61 and less than 4.70.
Turning to `Cc1nc(-c2ccc(S(=O)(=O)N(C)C[C@H]3CC[C@H](CNC(=O)OC(C)(C)C)CC3)s2)cs1` [Example 89, tert-Butyl ({trans-4-[(methyl {[5-(2-methyl-1,3-thiazol-4-yl)-2-thienyl]sulfonyl}-amino)methyl]cyclohexyl}methyl)carbamate], the pIC50 is 5.52 in test [1] and less than 4.70 in test [2].
For `CCN(C[C@H]1CC[C@H](CNC(=O)OC(C)(C)C)CC1)S(=O)(=O)c1ccc(-c2csc(C)n2)s1` [Example 90, tert-Butyl ({trans-4-[(ethyl {[5-(2-methyl-1,3-thiazol-4-yl)-2-thienyl]sulfonyl}amino)-methyl]cyclohexyl}methyl)carbamate], the results for the pIC50 in test [1] and in test [2] were 5.70 and less than 4.70, respectively.
As to `CN(C[C@H]1CC[C@H](CNC(=O)OC(C)(C)C)CC1)C(=O)c1cc(-c2ccccc2)nc2ccccc12` [Example 91, tert-Butyl {[trans-4-({methyl[(2-phenylquinolin-4-yl)carbonyl]amino}methyl)cyclo-hexyl]methyl}carbamate], the negative-log IC50 (pIC50) is 5.64 in test [1] and 5.32 in test [2].
As for `CC(C)(C)OC(=O)NC[C@H]1CC[C@H](CNC(=O)c2cc(-c3ccc(CN)cc3)nc3ccccc23)CC1` [Example 92, tert-Butyl [(trans-4-{[({2-[4-(aminomethyl)phenyl]quinolin-4-yl}carbonyl)amino]-methyl}cyclohexyl)methyl]carbamate acetate], the pIC50 in test [1] was 7.30; in test [2], 6.59.
With `CC(C)(C)OC(=O)NC[C@H]1CC[C@H](CNC(=O)c2cc(-c3ccc(C(=O)O)cc3)nc3ccccc23)CC1` [Example 93, 4-(4-{[(trans-4-{[(tert-Butoxycarbonyl)amino]methyl}cyclohexyl)methyl]carbamoyl}-quinolin-2-yl)benzoic acid], the negative logarithm of the IC50 (pIC50) in test [1] is 6.77; in test [2], 5.73.
Consider `CC(C)(C)OC(=O)NC[C@H]1CC[C@H](CNC(=O)c2cc(-c3cc[n+]([O-])cc3)nc3ccccc23)CC1` [Example 94, tert-Butyl ({trans-4-[({[2-(1-oxidopyridin-4-yl)quinolin-4-yl]carbonyl}amino)methyl]-cyclohexyl}methyl)carbamate], for which the pIC50 was 6.03 in test [1] and 5.26 in test [2].
Turning to `CC(C)(C)OC(=O)NC[C@H]1CC[C@H](CNS(=O)(=O)c2cc(-c3ccccc3)nc3ccccc23)CC1` [Example 95, tert-Butyl {[trans-4-({[(2-phenylquinolin-4-yl)sulfonyl]amino}methyl)cyclohexyl]-methyl}carbamate], the negative-log IC50 (pIC50) was 6.01 in test [1] and 5.67 in test [2].
